Tests used:
Format in all cases: cell-based
[1] = system: A375s-2; assay: MTT test, inhibition of cell proliferation; details: A375-S2, 72 hours
Description: (§1) Cell incubation: the cancer cells strains are incubated in RPMI 1640 with 10% FBS, grow along the wall at 37° C. under 5% CO2 incubator.
(§2) Sample solutions: First prepare material at 100 mM in DMSO, then diluted to DMSO 4.95% using 3% DMSO FBS solution.
(§3) MTT test: cancer cells are incubated at a density of 5×10^3 cells/well in 96 well cell Culture plate for 24 hours, then added different sample solutions for 72 hours. At the end of incubation, 5 mg/mL MTT 15 μL was added to each well and stayed for 4 hours, vacuumed the solution, added DMSO 150 μL, shaked for 10 minutes, tested at […] for the OD value in the spectrophotometer, and calculated the inhibition rate of cell proliferation.
(§4) Inhibition rate of cell proliferation=(control OD−sample OD)/control OD)*100%

[2] = system: A431; assay: MTT test, inhibition of cell proliferation; details: Homo sapiens, A-431, 72 hours
Description: as §1, §2, §3, §4

[3] = system: A549; assay: MTT test, inhibition of cell proliferation; details: Homo sapiens, 72 hours
Description: as §1, §2, §3, §4

[4] = system: BGC-823; assay: MTT test, inhibition of cell proliferation; details: Homo sapiens, 72 hours
Description: as §1, §2, §3, §4

[5] = system: Bel-7402; assay: MTT test, inhibition of cell proliferation; details: Homo sapiens, 72 hours
Description: as §1, §2, §3, §4

[6] = system: HL-60; assay: MTT test, inhibition of cell proliferation; details: Homo sapiens, 72 hours
Description: as §1, §2, §3, §4

[7] = system: Hela; assay: MTT test, inhibition of cell proliferation; details: Homo sapiens, 72 hours
Description: as §1, §2, §3, §4

[8] = system: HepG-2; assay: MTT test, inhibition of cell proliferation; details: Homo sapiens, HepG2, 72 hours
Description: as §1, §2, §3, §4

[9] = system: K562; assay: MTT test, inhibition of cell proliferation; details: Homo sapiens, 72 hours
Description: as §1, §2, §3, §4

[10] = system: KB; assay: MTT test, inhibition of cell proliferation; details: Homo sapiens, 72 h
Description: as §1, §2, §3, §4

[11] = system: L929; assay: MTT test, inhibition of cell proliferation; details: Mus musculus, 72 hours
Description: as §1, §2, §3, §4

[12] = system: MCF-7; assay: MTT test, inhibition of cell proliferation; details: Homo sapiens, MCF7, 72 h
Description: as §1, §2, §3, §4

[13] = system: U937; assay: MTT test, inhibition of cell proliferation; details: Homo sapiens, U-937, 72 hours
Description: as §1, §2, §3, §4

[14] = system: cancer cells; assay: MTT test, positive controls on the different cells; details: at 0.4, 0.8, 1.6, 3.2, and 6.4 μm/L
Description: as §1, §2, §3, §4

`CNC(=O)c1cc(Oc2ccc(CC(=O)Nc3ccc(Cl)c(C(F)(F)F)c3)cc2)ccn1` [Compound C, 4-(4-[(4-chloro-3-trifluoromethylphenylaminocarbonyl)-methyl]phenoxy)pyridin-2-carboxylic acid methylamide] showed an IC50 [1] of 11 to 30 µM, an IC50 [2] of 11 to 30 µM and an IC50 [3] of 31 to 50 µM. The IC50 [4] was 11 to 30 µM, the IC50 [5] was at most 10 µM and the IC50 [6] was at most 10 µM. It also gave an IC50 [7] of 11 to 30 µM, an IC50 [8] of 11 to 30 µM and an IC50 [9] of 31 to 50 µM. It also gave an IC50 ([10]; first listing (r12)) of 31 to 50 µM, an IC50 ([10]; second listing (r16)) of 11 to 30 µM and an IC50 [11] of 31 to 50 µM. It also gave an IC50 ([12]; MCF-7, first listing (r2)) of 31 to 50 µM, an IC50 ([12]; MCF-7, second listing (r6)) of 11 to 30 µM and an IC50 [13] of at most 10 µM.

`CNC(=O)c1cc(Oc2ccc(NC(=O)Nc3nc(C)c(C(C)(C)C)s3)cc2)ccn1` [Compound A, 4-{4-[3-(5-tert-Butyl-4-methyl-thiazol-2-yl)-ureido]-phenoxy}-pyridine-2-carboxylic acid methylamide] showed an IC50 [1] of 31 to 50 µM, an IC50 [2] of 11 to 30 µM and an IC50 [3] of 31 to 50 µM. For the same molecule, the IC50 [4] was 11 to 30 µM, the IC50 [5] was at most 10 µM and the IC50 [6] was 11 to 30 µM. For the same molecule, the IC50 [7] was 31 to 50 µM, the IC50 [8] was 11 to 30 µM and the IC50 [9] was 31 to 50 µM. It also gave an IC50 ([10]; first listing (r12)) of 11 to 30 µM, an IC50 ([10]; second listing (r16)) of 11 to 30 µM and an IC50 [11] of 31 to 50 µM. The IC50 ([12]; MCF-7, first listing (r2)) was at most 10 µM, the IC50 ([12]; MCF-7, second listing (r6)) was at most 10 µM and the IC50 [13] was 11 to 30 µM.

In the case of `CC(=O)O[C@H]1C(=O)[C@@]2(C)[C@H]([C@H](OC(=O)c3ccccc3)[C@]3(O)C[C@H](OC(=O)[C@H](O)[C@@H](NC(=O)c4ccccc4)c4ccccc4)C(C)=C1C3(C)C)[C@]1(OC(C)=O)CO[C@@H]1C[C@@H]2O` [Paclitaxel], the “inhibition for the different cells” value [14] is reported as “dose-dependent”.

For `O=P1(N(CCCl)CCCl)NCCCO1` (centres unmarked) [CYC, cyclophosphamide], the “inhibition for the different cells” value [14] was “dose-dependent”.

Source: patent US20100298385A1, “PROTEIN KINASE INHIBITORS USEFUL FOR TREATMENT OF CANCERS” (priority 2007, published 2010)
